Results: article PMC10541425, “Targeting Toll-like receptor-driven systemic inflammation by engineering an innate structural fold into drugs” (Nature Communications, 2023)
Like-named read-outs stand apart in the source and are kept apart here. Residues, ends and D or L forms follow the SMILES beside them.

What was measured:
hCD14 = target: T1, hCD14 (Homo sapiens, UniProt P08571, C306S); experiment: Microscale thermophoresis, binding to CD14; details: 10 mM Tris pH 7.4, read-out: Kd (µM) to CD14, MST
T1 construct: His-tag; non-native C-terminal linker with a protease-site-like motif, seen in the peptide map at 335-349 (C); made in house; host or cells: insect cells
T1 sequence (P08571 with tags, fused parts or gaps C306S limits assumed): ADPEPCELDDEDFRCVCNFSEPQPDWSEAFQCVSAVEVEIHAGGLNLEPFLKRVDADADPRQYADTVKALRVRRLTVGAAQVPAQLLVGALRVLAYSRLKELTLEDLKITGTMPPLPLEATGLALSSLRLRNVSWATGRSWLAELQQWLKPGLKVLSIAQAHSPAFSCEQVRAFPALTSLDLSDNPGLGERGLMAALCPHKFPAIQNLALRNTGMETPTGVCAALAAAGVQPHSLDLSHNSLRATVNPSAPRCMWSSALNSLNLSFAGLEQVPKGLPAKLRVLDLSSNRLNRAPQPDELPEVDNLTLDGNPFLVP
Experimental: Microscale thermophoresis (MST) was performed on a NanoTemper Monolith NT.115 apparatus (Nano Temper Technologies, Germany). A Monolith NT Protein labeling kit RED – NHS (Nano Temper Technologies, Germany) was used to label 20 μM of recombinant hCD14 according to the manufacturer’s protocol. […] The sample was then loaded into standard glass capillaries (Monolith NT Capillaries, Nano Temper Technologies), and MST analysis was performed (settings for the light-emitting diode and infrared laser were 80%).

[1] = system: THP1-XBlue-CD14 reporter cells
Experimental: (§5) Effects on NF-κB activation were assessed using THP1-XBlue-CD14 reporter cells (InvivoGen, San Diego, CA, USA). Briefly, 180,000 cells well^−1 were seeded in 96-well plates in phenol red RPMI media, supplemented with 10% (vv^−1) heat-inactivated FBS and 1% (vv^−1) Antibiotic-Antimycotic solution (AA). […] NF-κB activation was determined after 20 h of incubation according to the manufacturer’s instructions (InvivoGen, San Diego, CA, USA) by mixing 20 μL of supernatant with 180 μL of SEAP detection reagent (Quanti-BlueTM, InvivoGen, San Diego, CA, USA), followed by absorbance measurement at 600 nm. Data shown are mean values ± SD obtained from at least four independent experiments, all made in triplicate. In another set of experiments, the cells were stimulated with 100 ng mL^−1 of E. coli LPS, 1 μg mL^−1 S. aureus LTA, 1 μg mL^−1 E. coli PGN, 1 μg mL^−1 S. aureus PGN, or 10 μg mL^−1 S. cerevisiae zymosan in the presence or the absence of 10 μM of linear and stapled HVF18. The experiment was performed as described above.

in vitro = details: human, THP1-XBlue-CD14 reporter cells, Cell viability
Experimental: as §5

[2] = Cell viability of THP1-XBlue-CD14 reporter cells; details: human; for viability at 20 h, 1 µM: 1 µM peptide; for viability at 20 h, 2 µM: 2 µM peptide; for viability at 20 h, 5 µM: 5 µM peptide; for viability at 20 h, 10 µM: 10 µM peptide; for viability at 20 h, 20 µM: 20 µM peptide
Experimental: as §5

[3] = target: T2, human neutrophil elastase (HNE) (Homo sapiens, UniProt P08246); experiment: Protease degradation with human neutrophil elastase (SDS-PAGE, RP-HPLC, LC-MS/MS); assay type: in vitro ADME
T2 construct: purchased Calbiochem, Merck, Darmstadt, Germany
T2 sequence (P08246 30-267): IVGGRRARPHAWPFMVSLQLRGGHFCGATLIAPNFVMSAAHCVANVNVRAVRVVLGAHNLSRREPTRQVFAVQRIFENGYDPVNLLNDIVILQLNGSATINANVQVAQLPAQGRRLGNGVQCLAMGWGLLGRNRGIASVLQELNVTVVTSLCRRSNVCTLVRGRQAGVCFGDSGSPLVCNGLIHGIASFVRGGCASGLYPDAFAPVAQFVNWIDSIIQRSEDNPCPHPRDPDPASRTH
Experimental: (§1) The peptide was pre-mixed with Buffer A (1:3) 5 min before being loaded on the column. Protease-digested peptides were analyzed by HPLC as described above. Samples from two different digestions were analyzed.
(§2) Peptides were resuspended in endotoxin-free water at a final concentration of 1 mM. […] All digestions were performed in three independent experiments.
(§3) Two micrograms of peptide from each condition were loaded on 10–20% Novex Tricine pre-cast gels (Invitrogen, Carlsbad, CA, USA). The run was performed at 100 V for 100 min. The gel was stained by using Coomassie Brilliant blue (Invitrogen, Carlsbad, CA, USA), and images were acquired with a Gel Doc Imager (Bio-Rad Laboratories, Hercules, CA, USA). Samples from three independent digestions were analyzed.
(§4) LC-MS/MS analysis was performed using an HFX Orbitrap MS system (Thermo Scientific, San Jose, CA, USA) equipped with a Dionnex 3000 Ultimate HPLC (Thermo Fisher, USA). Settings were used as previously described by Petruk et al.[55] with minor changes. […] The precursor tolerance was set to 10 ppm and 0.02 Da for the MSMS fragments, and no enzyme was selected, allowing unspecific cleavage. Samples from two independent digestions were analyzed.

[4] = target: T3, P. aeruginosa elastase (PE) (Pseudomonas aeruginosa, UniProt P14756); assay type: in vitro ADME
T3 construct: purchased Calbiochem, Merck, Darmstadt, Germany
T3 sequence (P14756 198-498): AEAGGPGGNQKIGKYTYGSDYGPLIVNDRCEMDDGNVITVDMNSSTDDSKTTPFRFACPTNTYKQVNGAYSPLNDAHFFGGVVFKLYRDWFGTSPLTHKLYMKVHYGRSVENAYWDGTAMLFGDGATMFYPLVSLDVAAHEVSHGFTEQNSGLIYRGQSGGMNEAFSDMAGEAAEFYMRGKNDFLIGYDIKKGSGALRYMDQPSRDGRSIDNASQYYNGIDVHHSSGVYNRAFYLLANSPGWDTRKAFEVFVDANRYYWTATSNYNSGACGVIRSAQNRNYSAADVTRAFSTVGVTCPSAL
Experimental: as §1, §2, §3, §4

[5] = CD analysis after exposure to 80 °C (conformational stability); assay type: physicochemical; details: then CD, minima at 208 and 222 nm

Row | SMILES | Cell viability, PGN-EB 1 µg/ml + peptide [1] | viability at 20 h, 10 µM (in vitro; LTA 1 µg/ml + peptide) [%] | viability at 20 h, 10 µM (in vitro; PGN-SA 10 µg/ml + peptide) [%] | viability at 20 h, 1 µM ([2]; with LPS, replicate 1) [%] | viability at 20 h, 1 µM ([2]; with LPS, replicate 2) [%] | viability at 20 h, 1 µM ([2]; with LPS, replicate 3) [%] | viability at 20 h, 1 µM ([2]; with LPS, replicate 4) [%] | viability at 20 h, 2 µM ([2]; with LPS, replicate 1) [%] | viability at 20 h, 2 µM ([2]; with LPS, replicate 2) [%] | viability at 20 h, 2 µM ([2]; with LPS, replicate 3) [%] | viability at 20 h, 2 µM ([2]; with LPS, replicate 4) [%] | viability at 20 h, 5 µM ([2]; with LPS, replicate 1) [%] | viability at 20 h, 5 µM ([2]; with LPS, replicate 2) [%] | viability at 20 h, 5 µM ([2]; with LPS, replicate 3) [%] | viability at 20 h, 5 µM ([2]; with LPS, replicate 4) [%] | viability at 20 h, 10 µM ([2]; with LPS, replicate 1) [%] | viability at 20 h, 10 µM ([2]; with LPS, replicate 2) [%] | viability at 20 h, 10 µM ([2]; with LPS, replicate 3) [%] | viability at 20 h, 10 µM ([2]; with LPS, replicate 4) [%] | viability at 20 h, 20 µM ([2]; with LPS, replicate 1) [%] | also measured
1 | CC[C@H](C)[C@H](NC(=O)[C@H](Cc1c[nH]c2ccccc12)NC(=O)[C@H](CCCCN)NC(=O)[C@H](CCCCN)NC(=O)[C@H](CC(C)C)NC(=O)[C@H](CCCNC(=N)N)NC(=O)[C@H](Cc1ccccc1)NC(=O)[C@@H](NC(=O)[C@@H](N)Cc1cnc[nH]1)C(C)C)C(=O)N[C@@H](CCC(N)=O)C(=O)N[C@@H](CCCCN)C(=O)N[C@H](C(=O)N[C@H](C(=O)N[C@@H](CC(=O)O)C(=O)N[C@@H](CCC(N)=O)C(=O)N[C@@H](Cc1ccccc1)C(=O)NCC(=O)N[C@@H](CCC(=O)O)C(=O)O)[C@@H](C)CC)C(C)C [HVF18] (H-HVFRLKKWIQKVIDQFGE-OH) | 85.0457 | 105 | 74.3 | 79.5 | 76.5 | 83.4 | 78.1 | 94.1 | 84.3 | 83.2 | 88.3 | 107 | 97.5 | 80.5 | 82.3 | 89.5 | 92.1 | 82.5 | 103 | 90.6 | Kd (hCD14; with NaCl (150 mM), measurement 1): 3.2 µM; Kd (hCD14; with NaCl (150 mM), measurement 2): 2.5 µM; Kd (hCD14; with NaCl (150 mM), measurement 3): 1.1 µM; Kd (hCD14; with NaCl (150 mM), measurement 4): 2.7 µM; Kd (hCD14; with NaCl (150 mM), measurement 5): 2.5 µM; Kd (hCD14; with NaCl (150 mM), measurement 6): 1.6 µM; Kd (hCD14; without NaCl, measurement 1): 8.3 µM; Kd (hCD14; without NaCl, measurement 2): 6.2 µM; Kd (hCD14; without NaCl, measurement 3): 5.9 µM; Kd (hCD14; without NaCl, measurement 4): 8.7 µM; Kd (hCD14; without NaCl, measurement 5): 7.5 µM; Kd (hCD14; without NaCl, measurement 6): 2.1 µM; viability at 20 h, 20 µM ([2]; with LPS, replicate 2): 85.3%; viability at 20 h, 20 µM ([2]; with LPS, replicate 3): 77.4%; viability at 20 h, 20 µM ([2]; with LPS, replicate 4): 91.1%; viability at 20 h, 20 µM ([2]; without LPS, replicate 1): 99.3%; viability at 20 h, 20 µM ([2]; without LPS, replicate 2): 72.9%; viability at 20 h, 20 µM ([2]; without LPS, replicate 3): 84.9%; viability at 20 h, 20 µM ([2]; without LPS, replicate 4): 73.7%
2 | CC[C@H](C)[C@H](NC(=O)[C@H](Cc1c[nH]c2ccccc12)NC(=O)[C@H](CCCCN)NC(=O)[C@H](CCCCN)NC(=O)[C@H](CC(C)C)NC(=O)[C@H](CCCNC(=N)N)NC(=O)[C@H](Cc1ccccc1)NC(=O)[C@@H](NC(=O)[C@@H](N)Cc1c[nH]cn1)C(C)C)C(=O)N[C@@]1(C)CCCC=CCCC[C@@](C)(C(=O)N[C@@H](CCC(N)=O)C(=O)N[C@@H](Cc2ccccc2)C(=O)NCC(=O)N[C@@H](CCC(=O)O)C(=O)O)NC(=O)[C@H]([C@@H](C)CC)NC(=O)[C@H](C(C)C)NC(=O)[C@H](CCCCN)NC1=O [sHVF18] | 75.0616 | 91.3 | 55.8 | 88.7 | 90.5 | 78.9 | 86.3 | 102 | 92.8 | 74.9 | 96.3 | 106 | 93.7 | 79.1 | 95 | 99.1 | 88.8 | 82.4 | 87.8 | 104 | Fragmentation seen by LC-MS/MS after HNE digestion (in words) [3]: no identified sHVF18 fragments; Resistance to P. aeruginosa elastase (in words) ([4]; 0.2 µg PE, 0–18 h, SDS-PAGE, RP-HPLC, LC-MS/MS, versus linear peptide): improved resistance; Fragmentation seen by LC-MS/MS after PE digestion (in words) ([4]; 30 min and 3 h): no identified sHVF18 fragments; Conformational stability after exposure to 80 °C (CD analysis) [5]: still presented an α-helical spectrum; Cell viability, PGN-SA 10 µg/ml + peptide [1]: 69.8483; Cell viability, Zymosan 10 µg/ml + peptide [1]: 73.0816; viability at 20 h, 20 µM ([2]; with LPS, replicate 2): 70.9%; viability at 20 h, 20 µM ([2]; with LPS, replicate 3): 67.5%; viability at 20 h, 20 µM ([2]; with LPS, replicate 4): 77.9%; viability at 20 h, 20 µM ([2]; without LPS, replicate 1): 112%; viability at 20 h, 20 µM ([2]; without LPS, replicate 2): 69.7%; viability at 20 h, 20 µM ([2]; without LPS, replicate 3): 81.5%; viability at 20 h, 20 µM ([2]; without LPS, replicate 4): 90.5%
